“And” between values parts separate entries of the source, which are not always exact repeats. Equal values may be shown once.

Data on four compounds can be found in article PMC4648803 (Purinergic Signalling, 2015).

Assay [1] addresses T1, hA1AR (Homo sapiens, UniProt P30542).
T1 sequence (P30542 1-326): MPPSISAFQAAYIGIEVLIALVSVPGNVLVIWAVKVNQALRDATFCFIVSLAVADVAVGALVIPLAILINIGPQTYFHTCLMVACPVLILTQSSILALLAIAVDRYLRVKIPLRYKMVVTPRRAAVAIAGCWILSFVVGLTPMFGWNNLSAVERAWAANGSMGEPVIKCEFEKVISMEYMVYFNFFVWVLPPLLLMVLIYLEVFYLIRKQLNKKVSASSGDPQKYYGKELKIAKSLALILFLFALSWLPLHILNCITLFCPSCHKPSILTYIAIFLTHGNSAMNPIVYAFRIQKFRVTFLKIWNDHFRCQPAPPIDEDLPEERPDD
Briefly: biochemical. To be noted: K i ± SEM, Radioligand binding, overall (one-state) value, newly acquired. As for the experimental part:
(§1) The reference radioligand binding data were published before by our lab or were acquired as described before.
(§2) For the validation of MS binding assays, radioligand binding data that was published previously by our group was used. In the case that no in-house radioligand binding data was available, the concerning assays were performed following previously established protocols.

The target in assay [2] is T1, hA1AR. Kind of assay: biochemical. To be noted: K i ± SEM, MS binding, 6 nM DPCPX marker, overall (one-state) value.
Experimental: (§3) Ligand displacement experiments were performed using nine concentrations of competing ligand.
Assay [3] addresses T1, hA1AR. Kind of assay: MS binding competition association assay (marker ligand DPCPX). More on the design: expressed in transfected cells; host or cells: CHO cells stably expressing hA1AR (membrane preparation); gift from Prof; S. Hill, University of Nottingham. To be noted: for shape of competition association curve: 6 nM DPCPX, 250 nM competing ligand. On the procedure: . […] Non-specific binding was determined as described under “MS binding displacement assays.”

For assay [4], the target named is T1, hA1AR. Kind of assay: Radioligand binding competition association assay. As to conditions: newly acquired. More on the design: expressed in transfected cells; host or cells: CHO cells stably expressing hA1AR (membrane preparation); gift from Prof; S. Hill, University of Nottingham. As for the experimental part: as §1, §2
Assay [5] addresses T1, hA1AR. As to conditions: saturation on CHO-hA1AR membranes, M/IS.
Experimental: Dilutions were prepared with a HP D300 Digital Dispenser (Tecan Group, Männerdorf, Swiss) from DMSO stocks.
For assay [6], the target named is T1, hA1AR. As to conditions: saturation on hA1AR; cited from earlier work.
Assay [7] addresses T1, hA1AR. More on the design: expressed in transfected cells; host or cells: CHO cells stably expressing hA1AR (membrane preparation); gift from Prof; S. Hill, University of Nottingham; method as in PMID 23093571. As to conditions: competition association, apparent value; cited from earlier work.
For assay [8], the target named is T2, hA2AAR (Homo sapiens, UniProt P29274).
T2 construct: expressed in transfected cells; host or cells: HEK293 cells stably expressing hA2AAR (membrane preparation); gift from Dr. J. Wang, Biogen/IDEC
T2 sequence (P29274 whole entry): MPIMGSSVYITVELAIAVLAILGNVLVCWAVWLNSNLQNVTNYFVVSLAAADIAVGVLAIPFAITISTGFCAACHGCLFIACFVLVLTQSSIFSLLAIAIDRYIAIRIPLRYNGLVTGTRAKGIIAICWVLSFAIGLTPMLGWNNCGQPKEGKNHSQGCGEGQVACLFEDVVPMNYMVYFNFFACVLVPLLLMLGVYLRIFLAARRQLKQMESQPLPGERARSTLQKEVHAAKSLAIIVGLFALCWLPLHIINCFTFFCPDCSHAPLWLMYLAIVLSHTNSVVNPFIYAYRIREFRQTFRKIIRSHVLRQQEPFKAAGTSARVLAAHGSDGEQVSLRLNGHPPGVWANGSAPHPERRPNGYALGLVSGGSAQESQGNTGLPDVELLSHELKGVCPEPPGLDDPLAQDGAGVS
Kind of assay: MS binding displacement assay (marker ligand ZM-241,385). As to conditions: 3 nM ZM-241,385 marker, read-out: K i ± SEM, MS binding.
Experimental: as §3

The target of assay [9] is T2, hA2AAR. Briefly: Radioligand binding displacement assay. As to conditions: newly acquired, read-out: K i ± SEM, Radioligand binding. On the procedure: as §1, §2
Assay [10] has as its target T2, hA2AAR. Briefly: MS binding competition association assay (marker ligand ZM-241,385).
The target in assay [11] is T2, hA2AAR. Briefly: Radioligand binding competition association assay. To be noted: newly acquired. On the procedure: as §1, §2
Where [12] appears, read: competition association with 3 nM ZM-241,385, with internal standard.
Setting [13] is: competition association with 3 nM ZM-241,385, without internal standard.

For the compound `Cn1c(=O)c2[nH]c(C3CCCC3)nc2n(C)c1=O` [8-CPT, 8-Cyclopentyltheophylline], the Ki at hA1AR [1] was found to be 31 ± 1 nM; on hA1AR [2], 43 ± 11 nM. Moreover, the “shape of competition association curve” value at hA1AR [3] (hA1AR) is “typical for fast-dissociating ligands”. Besides, the koff on hA1AR [3] (read-out: k off ± SEM, MS binding (M/IS) (converted)) was 0.0233 s⁻¹; on hA1AR [3] (read-out: k off ± SEM, MS binding (marker) (converted)), 0.02 s⁻¹; at hA1AR [4] (read-out: k off ± SEM, Radioligand binding (converted)), 0.0183 s⁻¹. Further, the kon was 833000 M⁻¹ s⁻¹ on hA1AR [3] (read-out: k on ± SEM, MS binding (M/IS) (converted)); 500000 M⁻¹ s⁻¹ at hA1AR [3] (read-out: k on ± SEM, MS binding (marker) (converted)); 1e+06 M⁻¹ s⁻¹ on hA1AR [4] (read-out: k on ± SEM, Radioligand binding (converted)).

As for `CCCn1c(=O)c2[nH]c(C3CCCC3)nc2n(CCC)c1=O` [DPCPX, 1,3-dipropyl-8-cyclopentyl-xanthine], at hA1AR [5], the “B max, MS binding” value was 17.3 ± 0.3 pmol/mg protein. The “B max, Radioligand binding” value on hA1AR [6] is 14 ± 1 pmol/mg protein and 14 ± 1 [29] pmol/mg protein.

Consider `CCCn1c(=O)c2[nH]c(C3CCCC3)nc2n(CCCOC(=O)c2ccc(S(=O)(=O)F)cc2)c1=O` [FSCPX], for which, at hA1AR [3] (hA1AR), the “shape of competition association curve” value is “typical for slowly dissociating ligands”. The “displacement of the marker ligand DPCPX” value at hA1AR [3] (hA1AR, 250 nM FSCPX, after 120 min) was “completely”. Further, on hA1AR [3] (hA1AR, competition association with 6 nM DPCPX, with internal standard, apparent value for covalently binding FSCPX), the “k on ± SEM, MS binding (M/IS)” value is 0.7 ± 0.2 × 10^6 M^−1 min^−1. In addition, at hA1AR [3] (hA1AR, competition association with 6 nM DPCPX, without internal standard, apparent value for FSCPX), the “k on ± SEM, MS binding (marker)” value is recorded as 0.7 ± 0.2 × 10^6 M^−1 min^−1. The “k on ± SEM, Radioligand binding” value at hA1AR [7] was 3.7 ± 1.0 × 10^6 [29] M^−1 min^−1.

Take `C#CCn1c(=O)c2c(nc(C=Cc3cccc(OC)c3)n2C)n(CCCO)c1=O` [MSX-2, 3-(3-Hydroxypropyl)-7-methyl-1-propargyl-8-(m-methoxystryryl)xanthine]: on hA2AAR [8], the Ki came to 9 ± 0.3 nM. In addition, the Ki on hA2AAR [9] came to 5.7 ± 0.1 nM. Besides, the “shape of competition association curve” value at hA2AAR [10] (3 nM ZM-241,385, 90 nM MSX-2 or 15 nM LUF6632) is “typical for fast-dissociating ligands”. Besides, at hA2AAR [10] (setting [12]), the “k off ± SEM, MS binding (M/IS)” value stood at 0.00045 ± 8.3e-05 s⁻¹ and the “k on ± SEM, MS binding (M/IS)” value is recorded as 5.4 ± 0.6 × 10^6 M^−1 min^-1. At hA2AAR [10] (setting [13]), the “k off ± SEM, MS binding (marker)” value came out at 0.00105 ± 0.000367 s⁻¹ and the “k on ± SEM, MS binding (marker)” value is 9.3 ± 1.3 × 10^6 M^−1 min^-1. On hA2AAR [11], the “k off ± SEM, Radioligand binding” value was determined as 0.000433 ± 6.7e-05 s⁻¹ and the “k on ± SEM, Radioligand binding” value was 2.4 ± 0.2 × 10^6 M^−1 min^-1.
